Assays:
[1] = target: LBAA glyphosate oxidoreductase variant w1v2w3 (SER84, ARG153, HIS334) (Ochrobactrum sp. G-1, UniProt D2KI28, K153R/S2A); assay: Kinetic analysis of domain switches, clone w1v2w3; type: biochemical, bacterial isolate LBAA (Pseudomonas strain LBAA); conditions: substrate glyphosate
Description: (§1) The mutagenesis procedure used was that of Mn++-poisoned PCR and the template was a linearized glyphosate oxidoreductase gene plasmid containing the synthetic glyphosate oxidoreductase gene (SEQ ID NO:8). The oligonucleotide primers used were homologous to regions in the vector and flanking the glyphosate oxidoreductase gene. The PCR conditions employed were as follows: 1 minute at 94° C., 2 minutes at 55° C., and 3 minutes at 72° C. and with 35 cycles. A 5:1 ratio of dCTP+dGTP+TTP to dATP was used. The reactions contained MnCl2 at 125, 250, 375, or 500 μM. After the reaction, the amplified product was recloned into a vector containing a weak E. coli promoter. This vector was a pBR327 derivative containing the araBAD promoter and suitable cloning sites. […] Growth rates were determined by measuring A550 over a 96 hour period. […] Protein concentrations were determined using the Bio-Rad protein dye-binding assay. […] Ten minutes was determined to be the optimal time for the enzyme assay using 10 μg lysate. […] Enzyme activity was determined from the amount of glyoxylate-DNPH adduct formed by measuring A520 against a standard of glyoxylate. […] The Km and Vmax were determined from Lineweaver Burk, Eadie-Hofstee and hyperbolic kinetic plots. […]

[2] = target: LBAA glyphosate oxidoreductase variant v1w2v3 (GLY84, LYS153, ARG334) (Ochrobactrum sp. G-1, UniProt D2KI28, H334R/S2A/S84G); assay: Kinetic analysis of domain switches, clone v1w2v3; type: biochemical, bacterial isolate LBAA (Pseudomonas strain LBAA); conditions: substrate glyphosate
Description: as §1

## O=C(O)CNCP(=O)(O)O [glyphosate, N-phosphonomethyl-glycine]
[1]
  VmKm: 0.026
[2]
  VmKm: 0.21
